# Experimental data published in patent US20180057547A1, “DIAGNOSTIC AND THERAPEUTIC EPITOPE, AND TRANSGENIC PLANT” (OXFORD UNIVERSITY INNOVATION LIMITED, priority 1999, published 2018).
# Legend:
# [1] = test system: PBMC from coeliac volunteers; experiment: Antagonism of A-gliadin 57-73 QE65 interferon gamma ELISPOT response (simultaneous addition of peptide); format: cell-based, human; details: peptides known to bind HLA-DQ2, 50 μg/ml plus A-gliadin 57-73 QE65 10 μg/ml
# Description: Simultaneous addition of peptide (50 μg/ml) or buffer and A-gliadin 57-73 QE65 (10 μg/ml) in IFNgamma ELISPOT using PBMC from coeliac volunteers 6 days after commencing 3 day gluten challenge (n=5). Results were expressed as response with peptide plus A-G 57-73 QE65 (mean of duplicates) as % response with buffer plus A-G 57-73 QE65 (mean of 20 replicates). (See Table 9).
# [2] = test system: HLA-DQ2; details: cited from earlier work
# [3] = test system: CD4 or CD8 depleted PBMC from coeliac disease subjects; experiment: IFNγ ELISPOT with CD4 and CD8 magnetic bead depleted PBMC; format: cell-based, human
# Description: Anti-CD4 or anti-CD8 coated magnetic beads (Dynal, Oslo, Norway) were washed four times with RPMI then incubated with PBMC in complete RPMI containing 10% heat inactivated human AB serum (5×10^6 cells/ml) for 30 minutes on ice. Beads were removed using a magnet and cells remaining counted. […] HLA-class II restriction of the immune response to tTG-treated A-gliadin 56-75 was established by incubating PBMC (5×10^6 cells/ml) with anti-HLA-DR (L243), -DQ (L2), and -DP (B7.21) monoclonal antibodies (10 μg/ml) at room temperature for one hour prior to the addition of peptide.
# [4] = test system: PBMC from coeliac subjects; experiment: IFNγ ELISPOT with PBMC of coeliac disease subjects after bread/gluten challenge; format: cell-based, human; details: 25 mcg/ml, 4 subjects, blank 5 (1) %
# [5] = test system: gluten-specific T cell clones and lines; details: from original publications; iTCC intestinal T cell clone, iTCL intestinal polyclonal T cell line, bTCC peripheral blood T cell clone; NS not given; cited from earlier work
sequence,measurement,setting,value
"IDVWLGGLLAENFLPY [TP, reference compound]",% Inhibit. of A-gliadin 57-73 QE65 interferon gamma ELISpot response,[1],31%
same,binding to HLA-DQ2,[2],bind avidly to HLA-DQ2
"LQLQPFPQPQLPYPQPQSFP [A-gliadin 56-75, 20mer of A-gliadin, used tTG-treated]",spot forming cells per million CD8 depleted PBMC,"[3]; Subject 4, tTG treated peptide 0.1 μM",29 spot forming cells per million CD8 depleted PBMC
same,spot forming cells per million CD8 depleted PBMC,"[3]; Subject 6, tTG treated peptide 0.1 μM",535 spot forming cells per million CD8 depleted PBMC
same,cell subset mediating the IFNγ response,"[3]; anti-CD4 and anti-CD8 magnetic bead depletion, two subjects",CD4 T cell-mediated
"PRAPWIEQEGPEYW [HLA1a, reference compound]",% Inhibit. of A-gliadin 57-73 QE65 interferon gamma ELISpot response,[1],0%
same,% Inhibit. of A-gliadin 57-73 QE65 interferon gamma ELISpot response,[1]; listed as HLA class 1 α 46-60,does not alter responses
same,binding to HLA-DQ2,[2],bind avidly to HLA-DQ2
QLQPFPQPELPY [reference compound],"ELISpot response as % A-gliadin 57-73 QE65, E-substituted",[4]; glutamate-substituted peptide,8 (3) %
same,"ELISpot response as % A-gliadin 57-73 QE65, Wildtype + tTG",[4]; tTG-treated wild type peptide,19 (1) %
same,"ELISpot response as % A-gliadin 57-73 QE65, Wild type",[4]; unmodified gliadin peptide,6 (2) %
same,Frequency,[5],12/17 (iTCL)
